Test results from patent publication US20200237759A1, “DOSAGE REGIME AND METHOD FOR TREATING PULMONARY ARTERIAL HYPERTENSION” (Altavant Sciences GmbH, priority 2019, published 2020).
“Also recorded” adds a separate entry of the source.

What was measured:
[1] = Part 1 SAD urine pharmacokinetics (urinary excretion, renal clearance); type: in vivo, human
Experimental: Renal clearance of KAR5417 was calculated from the area under the plasma time concentration curve (AUC0-96) for KAR5417 and the amount of KAR5417 recovered in urine (Table 21).

[2] = test system: plasma 5-HIAA (a PD marker of 5-HT synthesis); test: Part 2 MAD biomarker: plasma 5-HIAA change from Day 1; type: in vivo, human
Description: (§1) Biomarkers were to be evaluated in Part 2 by measuring concentrations of serotonin (5-hydroxytryptamine [5-HT]) in serum and 5-hydroxyindoleacetic acid (5-HIAA) in plasma and urine. As well, the relationship of biomarkers to PK parameters was to be evaluated.
(§2) The biomarker analysis was to be based on the Biomarker Population (all subjects with evaluable biomarker measurements at baseline [Day 1 predose] and at least one after dosing [Day 7 or Day 14]).
(§3) Biomarker data were to be collected only in Part 2. The following biomarkers were to be analyzed: • Serum 5-HT • Plasma 5-HIAA • Urine 5-HIAA/24 hours (as measured, adjusted, estimated, and per gram creatinine)
The a priori primary biomarker endpoint was to be the change in plasma 5-HIAA concentration on Day 14 from Day 1.
(§4) Linear regression was to be performed using biomarker changes, absolute and relative (%), from Day 1, at predose on Day 7 or Day 14 versus AUC0-24, Cmax, and Cmin in corresponding study days. The slopes and corresponding 95% confidence intervals (CIs) were to be tabulated.
(§5) Summary statistics (mean, standard deviation [SD], median, minimum [Min], and maximum [Max]) were to be tabulated for each biomarker, by Cohort, with absolute and relative (%) changes from Day 1 predose.
(§6) The values were to be tabulated with P values testing whether the difference of changes was equal to 0.
(§7) The biomarker portion of the study was conducted in Part 2 MAD using the Biomarker Population. The biomarkers evaluated were serum 5-HT and plasma 5-HIAA, as well as urine 5-HIAA/24 hours (as measured, adjusted, estimated, and per gram creatinine). Urinary 5-HIAA was determined by a validated (21 C.F.R. 58, GLP-compliant) method using liquid chromatographic separation and tandem mass spectrometry detection.
(§8) The Biomarker Population consisted of all subjects with evaluable baseline (Day 1 predose) and at least one postdose (Day 7 or Day 14) biomarker measurements.
(§9) Biomarker data were analyzed for each KAR5585 dose separately, for all KAR5585 doses pooled, and for all placebo subjects pooled. […]

urine 5-HIAA/24 hours = test: Part 2 MAD biomarker: urine 5-HIAA/24 hours change from Day 1; type: in vivo, human; details: Days 7 and 14, all dose groups
Description: as §1, §2, §3
Linear regression was to be performed using biomarker changes, absolute and relative (%), from Day 1, at predose on Day 7 or Day 14 versus AUC0-24, Cmax, and Cmin in corresponding study days. The slopes and corresponding 95% confidence intervals (CIs) were to be tabulated. […]
as §7, with “detection. […]” for “detection.”
Biomarker data were analyzed for each KAR5585 dose separately, for all KAR5585 doses pooled, and for all placebo subjects pooled.
Urine 5 HIAA/24 hour was analyzed in 4 different manners: as measured in the 24-hour collection and (in order to correct for any collection errors) adjusted for creatinine excretion, estimated by the expected creatinine excretion for the subject (as defined in and expressed per gram creatinine. Results were similar for each of the 4 manners and are presented in this report for measured urine. Tables and figures for adjusted, estimated, and per-gram creatinine results are presented in Section 14. […]

serum 5-HT = test: Part 2 MAD biomarker: serum 5-HT change from Day 1; type: in vivo, human; details: Day 7, 200 mg fed dose group
Description: as §1, §2, §3, §4, §5, §6, §7, §8, §9

[3] = Part 1 SAD plasma pharmacokinetics of KAR5585 and KAR5417 after a single oral dose of KAR5585 (fasting; fed food effect); details: for AUC0-inf Geometric Mean / AUC0-tau Geometric Mean / Cmax Geometric Mean: 400 mg KAR5585 single oral dose
Experimental: Food effect was to be evaluated in Part 1, Period 2. Part 2 was permitted to begin before Part 1 was completed and, in each part, the data from each dose Cohort were to be reviewed for safety before the next dose Cohort was enrolled.
Part 1 had 6 Cohorts of 12 subjects each (for a total of 72 subjects) and Part 2 had 4 Cohorts of 12 subjects each (for a total of 48 subjects). In Part 1, the 12 subjects in Cohort 3 (400 mg) were studied twice, once under fasting conditions (Period 1) and once under fed conditions (Period 2) for food-effect assessment.
Pharmacokinetic data were to be summarized descriptively.

[4] = 100 mg to 700 mg single dose, 7-fold increase in dose
[5] = 700 mg to 2000 mg single dose, 2.86-fold increase in dose
[6] = KAR5585 100 mg single oral dose, fasted, Cohort 1
[7] = KAR5585 200 mg single oral dose, fasted, Cohort 2
[8] = KAR5585 400 mg single oral dose, fasted, Cohort 3A
[9] = KAR5585 400 mg single oral dose, fed, Cohort 3B
[10] = KAR5585 700 mg single oral dose, fasted, Cohort 4
[11] = KAR5585 1200 mg single oral dose, fasted, Cohort 5
[12] = KAR5585 2000 mg single oral dose, fasted, Cohort 6

CCOC(=O)[C@@H]1CC2(CCN(c3cc(O[C@H](c4ccc(Cl)cc4-c4ccccc4)C(F)(F)F)nc(N)n3)CC2)CN1 [KAR5585, (S)-ethyl 8-(2-amino-6-((R)-1-(5-chloro-[1,1′-biphenyl]-2-yl)-2,2,2-trifluoroethoxy)pyrimidin-4-yl)-2,8-diazaspiro[4.5]decane-3-carboxylate]
amount excreted (Ae) in urine, of the administered dose ([1]; single oral KAR5585, all dose levels): less than 0.004% | quantifiability in urine samples ([1]; single oral KAR5585, almost all subjects): could not be quantified in urine samples; also recorded: not quantifiable in urine in almost all subjects | mean percent difference of change from Day 1 in plasma 5-HIAA between KAR5585 and placebo ([2]; Day 7, any dose group): not significant | mean difference of changes from Day 1 to Day 14 in plasma 5-HIAA compared to placebo ([2]; each dose group and all doses combined, Day 14): statistically significant in favor of KAR5585 | absolute and percent changes from Day 1 in creatinine-normalized urine 5-HIAA versus placebo (urine 5-HIAA/24 hours): statistically significant in favor of KAR5585 | mean difference of percent changes from Day 1 in serum 5-HT compared to placebo (serum 5-HT): statistically significant | increase in mean AUC0-24 [3, 4]: 8.7 fold | increase in mean AUC0-inf [3, 4]: 8.8 fold | increase in AUC0-24 [3, 5]: 1.86 fold | increase in AUC0-inf [3, 5]: 1.78 fold | AUC0-inf Geometric Mean ([3]; Cohort 3A (Fasting)): 288 ng·h/mL | AUC0-tau Geometric Mean ([3]; Cohort 3A (Fasting)): 176 ng·h/mL | Cmax Geometric Mean ([3]; Cohort 3A (Fasting)): 42 ng/mL | AUC0-inf Geometric Mean ([3]; Cohort 3B (Fed)): 903 ng·h/mL | AUC0-tau Geometric Mean ([3]; Cohort 3B (Fed)): 854 ng·h/mL | Cmax Geometric Mean ([3]; Cohort 3B (Fed)): 165 ng/mL | AUC0-12 (Mean) [3, 6]: 48.1 ng·h/mL | AUC0-24 (Geo. Mean) [3, 6]: 47.5 ng·h/mL | AUC0-∞ (Geo. Mean) [3, 6]: 47.5 ng·h/mL | Cmax/D Geo. Mean [3, 6]: 0.132 (ng/mL)/mg | Cmax/D Mean [3, 6]: 0.139 (ng/mL)/mg | V2/F Geo. Mean [3, 6]: 5190 L | V2/F Mean [3, 6]: 5680 L | t1 Geo. Mean [3, 6]: 1.71 h | t1 Mean [3, 6]: 1.89 h | AUC0-12 (Geo. Mean) [3, 7]: 83.3 ng·h/mL | AUC0-24 (Geo. Mean) [3, 7]: 93.4 ng·h/mL | AUC0-∞ (Geo. Mean) [3, 7]: 95.3 ng·h/mL | Cmax/D Geo. Mean [3, 7]: 0.0875 (ng/mL)/mg | Cmax/D Mean [3, 7]: 0.0961 (ng/mL)/mg | V2/F Geo. Mean [3, 7]: 9610 L | V2/F Mean [3, 7]: 10300 L | t1 Geo. Mean [3, 7]: 3.17 h | t1 Mean [3, 7]: 3.63 h | AUC0-24 (Geo. Mean) [3, 8]: 283 ng·h/mL | AUC0-∞ (Geo. Mean) [3, 8]: 288 ng·h/mL | Cmax/D Geo. Mean [3, 8]: 0.105 (ng/mL)/mg | Cmax/D Mean [3, 8]: 0.132 (ng/mL)/mg | V2/F Geo. Mean [3, 8]: 8100 L | V2/F Mean [3, 8]: 8330 L | t1 Geo. Mean [3, 8]: 4.04 h | t1 Mean [3, 8]: 4.08 h | AUC0-24 (Geo. Mean) [3, 9]: 876 ng·h/mL | AUC0-tau Geo. Mean [3, 9]: 854 ng·h/mL | AUC0-∞ (Geo. Mean) [3, 9]: 903 ng·h/mL | Cmax (Geo. Mean) [3, 9]: 165 ng/mL | Cmax/D Geo. Mean [3, 9]: 0.413 (ng/mL)/mg | Cmax/D Mean [3, 9]: 0.422 (ng/mL)/mg | V2/F Geo. Mean [3, 9]: 2730 L | V2/F Mean [3, 9]: 2780 L | t1 Geo. Mean [3, 9]: 4.26 h | t1 Mean [3, 9]: 4.45 h | AUC0-12 (Mean) [3, 10]: 392 ng·h/mL | Cmax (Geo. Mean) [3, 10]: 95.2 ng/mL | Cmax/D Geo. Mean [3, 10]: 0.136 (ng/mL)/mg | Cmax/D Mean [3, 10]: 0.142 (ng/mL)/mg | V2/F Geo. Mean [3, 10]: 8390 L | V2/F Mean [3, 10]: 9120 L | t1 Geo. Mean [3, 10]: 3.42 h | t1 Mean [3, 10]: 3.46 h | tmax (Median) [3, 10]: 1.75 h | AUC0-12 (Geo. Mean) [3, 11]: 356 ng·h/mL | AUC0-12 (Mean) [3, 11]: 402 ng·h/mL | AUC0-24 (Geo. Mean) [3, 11]: 400 ng·h/mL | AUC0-tau Mean [3, 11]: 364 ng·h/mL | AUC0-∞ (Geo. Mean) [3, 11]: 406 ng·h/mL | Cmax/D Geo. Mean [3, 11]: 0.0568 (ng/mL)/mg | Cmax/D Mean [3, 11]: 0.0692 (ng/mL)/mg | V2/F Geo. Mean [3, 11]: 14500 L | V2/F Mean [3, 11]: 16900 L | t1 Geo. Mean [3, 11]: 3.40 h | t1 Mean [3, 11]: 3.58 h | Cmax (Geo. Mean) [3, 12]: 95.1 ng/mL | Cmax (Mean) [3, 12]: 104 ng/mL | Cmax/D Geo. Mean [3, 12]: 0.0475 (ng/mL)/mg | Cmax/D Mean [3, 12]: 0.0522 (ng/mL)/mg | V2/F Geo. Mean [3, 12]: 20600 L | V2/F Mean [3, 12]: 25100 L | t1 Geo. Mean [3, 12]: 4.76 h | t1 Mean [3, 12]: 4.84 h | tmax (Median) [3, 12]: 2.00 h | time up to which concentrations remained above the LLOQ ([3]; single 100 mg KAR5585, fasting): up to 4 hours | time up to which concentrations remained above the LLOQ ([3]; single 200 mg KAR5585, fasting): up to 12 hours | time up to which concentrations remained above the LLOQ ([3]; single 400 mg KAR5585, fasting): up to 12 hours | time up to which concentrations remained above the LLOQ ([3]; single 700 mg KAR5585, fasting): up to 12 hours | time up to which concentrations remained above the LLOQ ([3]; single 1200 mg KAR5585, fasting): up to 12 hours
